Where two headings read alike, the source gives them in different places.
How the values were obtained:
[1] = Compound stability in human liver microsomes; assay type: in vitro ADME; conditions: pH 7.4; for half-life at 5 μM: human liver microsomes 0.5 mg protein/mL, compound 5 μM, NADPH 1.0 mM, 37° C., read-out: Human T1/2; for CLint scaled at 5 μM: human liver microsomes, in vivo CLint extrapolated
Description: (§1) Human or rat liver microsomes incubations were conducted in duplicate in polypropylene tubes. The typical incubation mixtures consisted of human or rat liver microsomes (0.5 mg protein/mL), compounds of interest (5 μM) and NADPH (1.0 mM) in a total volume of 200 μL potassium phosphate buffer (PBS, 100 mM, pH 7.4). Compounds were dissolved in DMSO and diluted with PBS such that the final concentration of DMSO was 0.05%. The enzymatic reactions were commenced with the addition of protein after a 3-min preincubation and incubated in a water bath open to the air at 37° C. Reactions were terminated at various time points (0, 5, 10, 15, 30, 60 min) by adding equal volume of ice-cold acetonitrile. The samples were stored at −80° C. until LC/MS/MS assays.
(§2) The concentrations of compounds in the incubation mixtures of human or rat liver microsomes were determined by a LC/MS/MS method. The ranges of the linearity in the concentration range were determined for each tested compounds.
(§3) A parallel incubation was performed using denatured microsomes as the negative control, and reactions were terminated at various time points (0, 15, 60 min) after incubation at 37° C.
(§4) Dextromethorphan (70 μM) was selected as the positive control, and reactions were terminated at various time points (0, 5, 10, 15, 30, 60 min) after incubation at 37° C. Both positive and negative control samples were included in each assay to ensure the integrity of the microsomal incubation system.
(§5) The concentrations of compounds in human or rat liver microsome incubations were plotted as a percentage of the relevant zero time point control for each reaction. The in vivo CLint were extrapolated (ref.: Naritomi, Y.; Terashita, S.; Kimura, S.; Suzuki, A.; Kagayama, A.; and Sugiyama, Y.; Prediction of human hepatic clearance from in vivo animal experiments and in vitro metabolic studies with liver microsomes from animals and humans. Drug Metab. Dispos., 2001, 29: 1316-1324).

[2] = Compound stability in rat liver microsomes; assay type: in vitro ADME; conditions: pH 7.4; for half-life at 5 μM: rat liver microsomes 0.5 mg protein/mL, compound 5 μM, NADPH 1.0 mM, 37° C., read-out: Rat T1/2; for CLint scaled at 5 μM: rat liver microsomes, in vivo CLint extrapolated
Description: as §1, §2, §3, §4, §5

[3] = Pharmacokinetics after intravenous and oral administration in rats; assay type: in vivo; conditions: for F: oral bioavailability; for AUC(0-t) / half-life / Vd: rat, plasma; for Vd: read-out: Vss
Description: The compounds disclosed herein are assessed in pharmacokinetic studies in mice, rats, dogs or monkeys. The compounds are administered as a water solution, 2% HPMC+1% TWEEN®80 in water solution, 5% DMSO+5% solutol in saline, 4% MC suspension or capsule. For the intravenous administration, the animals are generally given at 0.5, 1 or 2 mg/kg dose. For the oral (p.o.) dosing, mice and rats are generally given 0.5, 1, 5 or 10 mg/kg dose, and dogs and monkeys are generally given 10 mg/kg dose. The blood samples (0.3 mL) are drawn at 0.25, 0.5, 1.0, 2.0, 3.0, 4.0, 6.0, 8.0, 12 and 24 h time points or 0.083, 0.25, 0.5, 1.0, 2.0, 4.0, 6.0, 8.0 and 24 h time points and centrifuged at 3,000 or 4000 rpm for 2 to 10 min. The plasma solutions are collected, and stored at −20° C. or −70° C. until analyzed by LC/MS/MS as described above.

Row | Compound | half-life at 5 μM [1] [min] | CLint scaled at 5 μM [1] [mL/min/kg] | half-life at 5 μM [2] [min] | CLint scaled at 5 μM [2] [mL/min/kg] | Cl/F ([3]; iv dosing, dose 1 mg/kg) [mL/min/kg] | F ([3]; iv dose 1 mg/kg) [%] | AUC(0-t) ([3]; iv dosing, dose 1 mg/kg) [ng·h/mL] | half-life ([3]; iv dosing, dose 1 mg/kg) [min] | Vd ([3]; iv dosing, dose 1 mg/kg) [L/kg] | Clearance (CL) after iv dosing ([3]; iv dosing, dose 1 mg/kg) [mL/min/kg] | Clearance (CL) after iv dosing ([3]; iv dosing, dose 0.5 mg/kg) [mL/min/kg] | F ([3]; iv dose 0.5 mg/kg) [%] | AUC(0-t) ([3]; iv dosing, dose 0.5 mg/kg) [ng·h/mL] | half-life ([3]; iv dosing, dose 0.5 mg/kg) [min] | Vd ([3]; iv dosing, dose 0.5 mg/kg) [L/kg]
1 | Cn1cc(Nc2ncc(Cl)c(NC3CCC4(CC3)CCN(S(=O)(=O)C3CC3)CC4)n2)cn1 | 61 | 28.5 | 30 | 82.7 | 46.3 | 64.4 | 363 | 37.2 | 2.07 | – | – | – | – | – | –
2 | N#CCC(=O)N1CC2CC(Nc3nc(Nc4cnn(C5CCCNC5)c4)ncc3Cl)CC2C1 (centres unmarked) [Ex. 3, 3-(5-((5-chloro-2-((1-(piperidin-3-yl)-1H-pyrazol-4-yl)amino)pyrimidin-4-yl)amino)hexahydrocyclopenta[c]pyrrol-2(1H)-yl)-3-oxopropanenitrile] | 555 | 3.13 | 3.88 | 639 | – | – | – | – | – | – | – | – | – | – | –
3 | CC(=O)N1CC2CC(Nc3nc(Nc4cnn(C5CCCNC5)c4)ncc3Cl)CC2C1 (centres unmarked) [Ex. 4, 1-(5-((5-chloro-2-((1-(piperidin-3-yl)-1H-pyrazol-4-yl)amino)pyrimidin-4-yl)amino)hexahydrocyclopenta[c]pyrrol-2(1H)-yl)ethanone] | 951 | 1.83 | 68.7 | 36.1 | – | – | – | – | – | – | – | – | – | – | –
4 | N#CCC(=O)N1CC2CC(Nc3nc(Nc4cnn(C5CCNCC5)c4)ncc3Cl)CC2C1 (centres unmarked) [Ex. 5, 3-(5-((5-chloro-2-((1-(piperidin-4-yl)-1H-pyrazol-4-yl)amino)pyrimidin-4-yl)amino)hexahydrocyclopenta[c]pyrrol-2(1H)-yl)-3-oxopropanenitrile] | 1040 | 1.66 | – | – | – | – | – | – | – | – | – | – | – | – | –
5 | CC(=O)N1CC2CC(Nc3nc(Nc4cnn(C5CCNCC5)c4)ncc3Cl)CC2C1 (centres unmarked) [Ex. 6, 1-(5-((5-chloro-2-((1-(piperidin-4-yl)-1H-pyrazol-4-yl)amino)pyrimidin-4-yl)amino)hexahydrocyclopenta[c]pyrrol-2(1H)-yl)ethanone] | 660 | 2.63 | 2640 | 0.94 | – | – | – | – | – | – | – | – | – | – | –
6 | CC(=O)N1CC2CC(Nc3nc(Nc4cnn(-c5ccccn5)c4)ncc3Cl)CC2C1 (centres unmarked) [Ex. 8, 1-(5-((5-chloro-2-((1-(pyridin-2-yl)-1H-pyrazol-4-yl)amino)pyrimidin-4-yl)amino)hexahydrocyclopenta[c]pyrrol-2(1H)-yl)ethanone] | 31.4 | 55.3 | 16.2 | 153 | – | 36.9 | 558 | 33.6 | 1.55 | 31 | – | – | – | – | –
7 | COc1ccc(-n2cc(Nc3ncc(Cl)c(NC4CC5CN(C(C)=O)CC5C4)n3)cn2)cn1 (centres unmarked) [Ex. 11, 1-(5-((5-chloro-2-((1-(6-methoxypyridin-3-yl)-1H-pyrazol-4-yl)amino)pyrimidin-4-yl)amino)hexahydrocyclopenta[c]pyrrol-2(1H)-yl)ethanone] | – | – | – | – | – | 19.5 | 235 | 18 | 1.22 | 75.3 | – | – | – | – | –
8 | Cn1cc(Nc2ncc(Cl)c(NC3CCC4(CC3)CCN(C(=O)CC3CC3)CC4)n2)cn1 [Ex. 20, 1-(9-((5-chloro-2-((1-methyl-1H-pyrazol-4-yl)amino)pyrimidin-4-yl)amino)-3-azaspiro[5.5]undecan-3-yl)-2-cyclopropyl ethanone] | – | – | – | – | – | – | – | – | – | – | 24.7 | 91.2 | 348 | 42 | 1.07
9 | Cn1cc(Nc2ncc(Cl)c(NC3CCC4(CC3)CCN(CC(C)(C)O)CC4)n2)cn1 [Ex. 21, 1-(9-((5-chloro-2-((1-methyl-1H-pyrazol-4-yl)amino)pyrimidin-4-yl)amino)-3-azaspiro[5.5]undecan-3-yl)-2-methylpropan-2-ol] | 404 | 4.3 | 62.9 | 39.5 | – | 118.2 | 147 | 87.6 | 11.9 | 109 | – | – | – | – | –
10 | Cn1cc(Nc2ncc(Cl)c(NC3CCC4(CC3)CCN(C(=O)C3CC3)CC4)n2)cn1 [Ex. 22, (9-((5-chloro-2-((1-methyl-1H-pyrazol-4-yl)amino)pyrimidin-4-yl)amino)-3-azaspiro[5.5]undecan-3-yl)(cyclopropyl)methanone] | 65.7 | 26.5 | 3.33 | 745 | – | 84.6 | 746 | 33.6 | 1.21 | 22.3 | – | – | – | – | –
11 | Cn1cc(Nc2ncc(Cl)c(NC3CC4CN(C(=O)c5ccccc5)CC4C3)n2)cn1 (centres unmarked) [Ex. 27, (5-((5-chloro-2-((1-methyl-1H-pyrazol-4-yl)amino)pyrimidin-4-yl)amino)hexahydrocyclopenta[c]pyrrol-2(1H)-yl)(phenyl)methanone] | – | – | – | – | – | 22.5 | 218 | 13.2 | 0.93 | 77.7 | – | – | – | – | –
12 | Cn1cc(Nc2ncc(Cl)c(NC3CC4CN(C(=O)Nc5ccccc5)CC4C3)n2)cn1 (centres unmarked) [Ex. 28, 5-((5-chloro-2-((1-methyl-1H-pyrazol-4-yl)amino)pyrimidin-4-yl)amino)-N-phenylhexahydrocyclopenta[c]pyrrole-2(1H)-carboxamide] | 24.2 | 72 | 3.6 | 690 | – | 42.0 | 168 | 22.8 | 1.99 | 99.2 | – | – | – | – | –
13 | Cn1cc(Nc2ncc(Cl)c(NC3CC4CN(C(=O)N5CCOCC5)CC4C3)n2)cn1 (centres unmarked) [Ex. 29, (5-((5-chloro-2-((1-methyl-1H-pyrazol-4-yl)amino)pyrimidin-4-yl)amino)hexahydrocyclopenta[c]pyrrol-2(1H)-yl)(morpholino)methanone] | 43.2 | 40.2 | 19.8 | 126 | – | 102.8 | 413 | 21 | 1.19 | 40.3 | – | – | – | – | –
14 | CC(=O)N1CCC2(CCC(Nc3nc(Nc4cnn(C5CCNCC5)c4)ncc3Cl)CC2)CC1 [Ex. 33, 1-(9-((5-chloro-2-((1-(piperidin-4-yl)-1H-pyrazol-4-yl)amino)pyrimidin-4-yl)amino)-3-azaspiro[5.5]undecan-3-yl)ethanone] | 275 | 6.32 | 321 | 7.73 | – | – | – | – | – | – | – | – | – | – | –
15 | CC(C)(O)Cn1cc(Nc2ncc(Cl)c(NC3CC4CN(C(=O)NC5CC5)CC4C3)n2)cn1 (centres unmarked) [Ex. 36, 5-((5-chloro-2-((1-(2-hydroxy-2-methylpropyl)-1H-pyrazol-4-yl)amino)pyrimidin-4-yl)amino)-N-cyclopropylhexahydrocyclopenta[c]pyrrole-2(1H)-carboxamide] | 69.2 | 25.1 | 30.7 | 81 | – | – | – | – | – | – | – | – | – | – | –
16 | CC(O)Cn1cc(Nc2nccc(NC3CC4CN(C(=O)NC5CC5)CC4C3)n2)cn1 (centres unmarked) [Ex. 42, N-cyclopropyl-5-((2-((1-(2-hydroxypropyl)-1H-pyrazol-4-yl)amino)pyrimidin-4-yl)amino)hexahydrocyclopenta[c]pyrrole-2(1H)-carboxamide] | 153 | 11.3 | 375 | 6.6 | – | – | – | – | – | – | – | – | – | – | –

— patent US9938257B2 (Sunshine Lake Pharma Co., Ltd., priority 2015, dated 2018)
